Where two headings read alike, the source gives them in different places. No end group written: not given here.
What was measured:
POL/UL8 interaction [1] = target: T1, POL/UL8 interaction (Human herpesvirus 1, UniProt P04293); assay: biochemical; format: binding, HSV-1; conditions: for Inhibition of the POL/UL8 interaction (in words): FIG. 6
T1 construct: made in house; host or cells: Spodoptera frugiperda (Sf) cells infected with recombinant baculoviruses AcUL30 and AcUL8
Excerpt: POL/UL8 interaction assays. ELISA assays, similar to that described for POL/UL42 (Marsden et al., 1994) were established with purified POL and UL8 proteins. POL was extracted from Sf cells infected with recombinant baculovirus AcUL30 and purified as described by Gottlieb et al. (1990) with minor modifications (Marsden et al., 1994). UL8 protein was extracted from Sf cells infected with recombinant baculovirus AcUL8 and purified as described by Parry et al., (1993) but substituting phenyl-Sepharose by hydroxylapatite chromatography (Dodson and Lehman, 1991). Both proteins were diluted in PBS to the required concentrations. For the first assay, microtiter wells were coated overnight with 0.02 μg of purified POL and blocked with 100 μl of 2% BSA in PBS for 1 h at 37° C. After blocking, the plates were washed extensively with PBS containing 0.3% Tween 20 and blotted dry. Then 50 μl of purified UL8, at the concentrations indicated in the text, were added to each well and incubated for 1 h at 37° C. […] The wells were again extensively washed and bound MAb was detected with 50 μl/well of HRP-conjugated goat anti-mouse IgG (Sigma) diluted 1:500 in PBS containing 2% FCS and chromogenic substrate ABTS. For the second assay, POL and UL8 proteins were added in the reverse order. Microtitre wells were coated overnight with 0.02 to 0.04 μg of purified UL8 protein and bound POL was detected with a POL-specific MAB 13185 (Marsden et al., 1996) diluted 1:100. Other aspects of the two assays were identical. MAbs, diluted in PBS plus 2% fetal calf serum, and peptides, diluted in 100 mM Tris-HCl (pH 8.0) plus 0.1% Tween 20, were added to the interaction assay as described in the text.
Inhibition of the POL/UL8 interaction by UL8 peptides. […] Peptides were dissolved in 100 mM Tris-HCl (pH 8.0) plus 0.1% Tween 20 at different concentrations and incubated with POL for 15 min to allow the peptides to bind to POL. The mixtures were then added to microtiter wells coated with UL8 and the amount of POL bound was determined after 1 h. […] The concentration of each peptide required to reduce POL binding by 50% (the IC50 value) was determined in at least 3, and on average 5, independent experiments.
The jumbled peptide, 7J, was made by linking residues from alternately the N- and C-termini of peptide 7. Thus, if the order of the 20 residues in peptide 7 is represented as 1, 2, 3, . . . 18, 19, 20, that in 7J was 1, 20, 2, 19, . . . […].
We next investigated whether the preincubation step was necessary.

[2] = Solubility of peptides in assay buffer; format: physicochemical; conditions: 100 mM Tris-HCl (pH 8.0) plus 0.1% Tween 20
UL54/UL102 interaction = target: T2, UL54/UL102 interaction (Human cytomegalovirus, UniProt P08546); assay: UL54/UL102 interaction ELISA, inhibition by UL102 peptides; format: binding, HCMV
T2 construct: made in house; host or cells: Spodoptera frugiperda (Sf) cells infected with recombinant baculoviruses AcUL54 and AcUL102
Method: UL54/UL102 interaction assays. ELISA assays, similar to those described for HSV-1 POL/UL8 (see Example 1 above) were established with purified HCMV UL54 and UL102 proteins. […] The wells were again extensively washed and bound antibody was detected with 50 μl/well of HRP-conjugated protein A (Sigma) diluted 1:500 in PBS containing 2% FCS. After further washes, chromogenic substrate ABTS was added.
Inhibition of the UL54/UL102 interaction by UL102 peptides. […] To do this, the peptides listed in Table 4 were tested for their ability to block the interaction of HCMV UL102 with HCMV UL54. […] The amount of UL54 bound was determined after 1 h by measuring the absorbance at 405 nm as described. The absorbance in the absence of any peptide, 1.061±0.033, was determined from six wells. The background absorbance in the absence of any UL54, 0.240±0.025, was also determined from six wells and was subtracted from all values. […] The concentration of each peptide required to reduce UL54-binding by 50% (the IC50 value) was determined and is listed in Table 4.

POL/UL8 interaction [3] = target: T1, POL/UL8 interaction; assay: biochemical; format: binding, HSV-1; conditions: IC50 value for inhibition of the POL/UL8 interaction, FIG. 8; no pre-incubation, peptide added a few seconds after POL
[4] = IC50 value for inhibition of the POL/UL8 interaction, experiment shown in FIG. 7, 15 min pre-incubation with POL

T1 sequence (P04293 whole entry): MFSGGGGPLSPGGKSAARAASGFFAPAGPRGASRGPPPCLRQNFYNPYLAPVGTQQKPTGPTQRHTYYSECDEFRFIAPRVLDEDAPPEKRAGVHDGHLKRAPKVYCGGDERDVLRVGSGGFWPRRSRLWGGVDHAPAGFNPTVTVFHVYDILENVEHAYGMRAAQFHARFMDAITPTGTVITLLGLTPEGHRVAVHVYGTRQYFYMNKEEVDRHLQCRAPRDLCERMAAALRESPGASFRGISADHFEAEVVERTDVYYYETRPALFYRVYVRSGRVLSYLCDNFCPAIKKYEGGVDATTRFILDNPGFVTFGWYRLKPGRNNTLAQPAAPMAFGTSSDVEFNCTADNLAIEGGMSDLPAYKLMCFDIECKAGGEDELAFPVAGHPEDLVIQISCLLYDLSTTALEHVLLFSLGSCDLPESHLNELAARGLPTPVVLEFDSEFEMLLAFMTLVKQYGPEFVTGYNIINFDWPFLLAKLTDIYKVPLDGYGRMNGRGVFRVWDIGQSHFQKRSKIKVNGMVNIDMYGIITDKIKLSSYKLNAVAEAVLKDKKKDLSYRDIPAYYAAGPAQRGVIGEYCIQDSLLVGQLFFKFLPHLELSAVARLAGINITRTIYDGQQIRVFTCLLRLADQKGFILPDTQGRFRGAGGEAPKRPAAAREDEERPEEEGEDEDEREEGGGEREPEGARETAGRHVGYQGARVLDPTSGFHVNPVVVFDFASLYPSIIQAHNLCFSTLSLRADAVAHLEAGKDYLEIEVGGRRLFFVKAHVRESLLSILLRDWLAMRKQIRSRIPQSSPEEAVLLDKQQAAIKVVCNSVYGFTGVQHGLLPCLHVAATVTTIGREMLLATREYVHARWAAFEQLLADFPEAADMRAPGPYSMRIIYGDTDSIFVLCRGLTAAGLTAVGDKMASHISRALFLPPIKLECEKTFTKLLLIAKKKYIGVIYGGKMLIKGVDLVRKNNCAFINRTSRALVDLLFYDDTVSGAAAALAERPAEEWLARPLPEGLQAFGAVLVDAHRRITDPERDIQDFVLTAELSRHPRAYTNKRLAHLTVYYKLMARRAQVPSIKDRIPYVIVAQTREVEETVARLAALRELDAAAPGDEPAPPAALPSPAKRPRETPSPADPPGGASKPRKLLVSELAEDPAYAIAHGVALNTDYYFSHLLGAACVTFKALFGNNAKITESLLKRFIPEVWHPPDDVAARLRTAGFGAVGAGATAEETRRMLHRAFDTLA
T2 sequence (P08546 whole entry): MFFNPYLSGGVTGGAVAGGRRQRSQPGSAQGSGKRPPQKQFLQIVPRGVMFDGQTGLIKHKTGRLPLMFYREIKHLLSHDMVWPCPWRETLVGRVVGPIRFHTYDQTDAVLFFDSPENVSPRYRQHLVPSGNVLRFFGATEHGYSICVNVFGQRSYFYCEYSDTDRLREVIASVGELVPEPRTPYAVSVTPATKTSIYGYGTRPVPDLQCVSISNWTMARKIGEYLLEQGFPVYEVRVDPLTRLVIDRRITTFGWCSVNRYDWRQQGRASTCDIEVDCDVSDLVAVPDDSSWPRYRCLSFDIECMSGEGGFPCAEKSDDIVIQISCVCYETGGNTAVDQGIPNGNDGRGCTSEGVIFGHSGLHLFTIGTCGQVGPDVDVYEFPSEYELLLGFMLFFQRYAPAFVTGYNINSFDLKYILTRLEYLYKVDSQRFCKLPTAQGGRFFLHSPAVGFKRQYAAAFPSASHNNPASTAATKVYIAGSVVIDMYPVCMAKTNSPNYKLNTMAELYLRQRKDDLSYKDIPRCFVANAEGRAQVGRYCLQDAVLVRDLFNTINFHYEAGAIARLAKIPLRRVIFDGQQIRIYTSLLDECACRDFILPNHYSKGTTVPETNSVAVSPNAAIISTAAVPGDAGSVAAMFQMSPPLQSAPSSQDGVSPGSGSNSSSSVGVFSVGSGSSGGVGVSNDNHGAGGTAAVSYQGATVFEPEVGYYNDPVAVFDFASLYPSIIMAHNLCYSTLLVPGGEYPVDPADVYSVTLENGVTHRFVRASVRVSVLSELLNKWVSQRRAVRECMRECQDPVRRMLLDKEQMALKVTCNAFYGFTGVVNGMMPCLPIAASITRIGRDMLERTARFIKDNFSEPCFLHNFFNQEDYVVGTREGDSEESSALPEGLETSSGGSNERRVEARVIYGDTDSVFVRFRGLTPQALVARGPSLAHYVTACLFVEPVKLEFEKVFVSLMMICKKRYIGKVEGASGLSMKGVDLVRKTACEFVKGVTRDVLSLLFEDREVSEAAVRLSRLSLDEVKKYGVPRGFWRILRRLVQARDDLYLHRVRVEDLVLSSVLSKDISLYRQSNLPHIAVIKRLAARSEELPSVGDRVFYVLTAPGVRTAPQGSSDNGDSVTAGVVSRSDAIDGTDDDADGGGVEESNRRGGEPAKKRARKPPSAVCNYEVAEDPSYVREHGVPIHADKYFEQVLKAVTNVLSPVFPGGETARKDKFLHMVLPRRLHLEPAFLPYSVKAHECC

Question: Which IC50 (POL/UL8 interaction [1]) does the source give for “VFTGVLAGVWGEGGKFVYPFDDKMSFLFA [Peptide 5]” here?
Answer: 66 ± 22 µM

Question: What about the “Inhibition of the POL/UL8 interaction (in words)” value (POL/UL8 interaction [1]) of the same compound?
Answer: markedly inhibitory

Question: What about the “Solubility (in words)” value [2] of the same compound?
Answer: limited solubility

Question: With CC[C@H](C)[C@H](NC(=O)[C@@H]1CCCN1C(=O)[C@H](CCC(=O)O)NC(=O)[C@H](CCCCN)NC(=O)[C@H](CCC(=O)O)NC(=O)[C@H](CC(C)C)NC(=O)[C@H](CCC(N)=O)NC(=O)[C@H](Cc1ccc(O)cc1)NC(=O)[C@H](Cc1c[nH]c2ccccc12)NC(=O)[C@H](CC(C)C)NC(=O)[C@H](CCCCN)NC(=O)[C@@H](N)C(C)C)C(=O)N[C@H](C(=O)NCC(=O)N[C@@H](C)C(=O)O)C(C)C [Peptide RT85, reference compound] as the compound, how does the IC50 (UL54/UL102 interaction) read?
Answer: > 200 µM

Question: What about the IC50 (POL/UL8 interaction [1]) of the same compound?
Answer: > 250 µM

Question: With VLAGVWGEGGKFVYPFDDKMSFLFA [Peptide 3] as the compound, how does the IC50 (POL/UL8 interaction [1]) read?
Answer: > 250 µM

Question: Which results are given for “IVEFLKVGFGTEGGVWLVAG [Peptide 7J, reference compound]”?
Answer: IC50 (POL/UL8 interaction [1]): > 20 µM; IC50 (POL/UL8 interaction [1]; [4]): > 20 µM

Question: Which IC50 (POL/UL8 interaction [1]) does the source give for TGVLAGVWGEGGKFV [Peptide 6] here?
Answer: > 250 µM

Question: For EILREIELVFTGVLA [Peptide 8], which IC50 (POL/UL8 interaction [1]) is on record?
Answer: > 250 µM

Question: Which results are given for IELVFTGVLAGVWGEGGKFV [Peptide 7]?
Answer: IC50 (POL/UL8 interaction [1]): 2.3 ± 2.2 µM; Inhibition of the POL/UL8 interaction (in words) (POL/UL8 interaction [1]): markedly inhibitory; IC50 (POL/UL8 interaction [1]; IC50 value for inhibition of the POL/UL8 interaction, FIG. 8, peptide pre-incubated with POL for 15 min): ~1 µM; IC50 (POL/UL8 interaction [1]; [4]): ~1 µM; Solubility (in words) [2]: limited solubility; IC50 (POL/UL8 interaction [3]): ~1 µM

Question: Which IC50 (POL/UL8 interaction [1]) does the source give for TGVLAGVWGEGGKFVYPFDDKMSFLFA [Peptide 4] here?
Answer: > 250 µM

Reference: patent US6337074B1, “Anti-herpesviral agent” (priority 1996, dated 2002)
